What was measured:
TrxR = biological target: T1, TrxR (Homo sapiens, UniProt Q16881); assay: CETSA and ITDR assay, TrxR; type: binding; details: HepG2 proteins, 8 µM, ITDR at 78 °C
T1 construct: endogenous in cells; host or cells: HepG2
T1 sequence (Q16881 151-649 limits assumed): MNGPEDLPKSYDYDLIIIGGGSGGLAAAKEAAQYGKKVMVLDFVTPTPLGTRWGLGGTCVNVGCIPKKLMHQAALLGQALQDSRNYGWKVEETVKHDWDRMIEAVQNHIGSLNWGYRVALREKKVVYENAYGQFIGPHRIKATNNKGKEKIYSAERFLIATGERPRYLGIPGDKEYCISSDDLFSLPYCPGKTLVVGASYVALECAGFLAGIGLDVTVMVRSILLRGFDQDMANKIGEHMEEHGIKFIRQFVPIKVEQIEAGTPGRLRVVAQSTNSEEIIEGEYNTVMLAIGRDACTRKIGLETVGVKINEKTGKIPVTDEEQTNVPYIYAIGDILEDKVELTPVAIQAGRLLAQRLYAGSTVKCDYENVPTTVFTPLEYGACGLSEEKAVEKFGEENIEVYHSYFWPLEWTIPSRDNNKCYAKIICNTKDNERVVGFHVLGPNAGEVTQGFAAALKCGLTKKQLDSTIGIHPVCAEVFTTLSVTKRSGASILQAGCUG
Experimental: The treated HepG2 cells in 10 cm culture dishes were collected and washed with PBS. The collected cells were repeatedly frozen and thawed for 3 times by liquid nitrogen and 37 °C water bath. Then, proteins were isolated by centrifugation. The isolated proteins were divided into different tubes and incubated with same concentration of 6d at different temperature. Western blot was applied for CETSA by analyzing the band intensity of different temperature groups.
The temperature, which results in significant band differences between 6d and control group, was selected for ITDR assay. The isolated proteins were divided into different tubes and incubated with different concentration of 6d at same temperature. The binding between 6d and target protein was assessed by analyzing the band intensity of different concentration groups.

[1] = In vivo tolerability (body weight, survival, organ H&E)
Experimental: All mice were 6–8 weeks old males and procured from Hangzhou Medical College, located in Hangzhou, China. […] 2 × 10^6 Hepa1‐6 cells in 100 µL DMEM were subcutaneously seeded in underarms of C57BL/6 mice. […] Meanwhile, the mice weights and tumor volume were recorded, and the calculation formula of tumor volume was Volume = Width^2 × Length/2. After 13 days, all mice were sacrificed for collection of tumors, hearts, livers, spleens, lungs and kidneys. Collagenase IV (1 mg mL^−1) and DNase I (1 µg mL^−1) were applied to digest a part of the tumor tissue into cell suspension, and lysis buffer was used to remove red blood cells. The prepared cells above were stained with antibodies (anti‐CD3e‐FITC, and anti‐CD8a‐PE; anti‐CD11c‐APC, anti‐CD80‐PE, and anti‐CD86‐FITC; anti‐CD45‐Percp, anti‐CD11b‐APC, and anti‐Ly‐6G/Ly‐6C(Gr‐1)‐FITC; anti‐CD11b‐APC, anti‐CD206‐PE, and CD86‐FITC). CD3^+CD8^+ T cells, CD80^+CD86^+ DCs, CD11b^+Gr‐1^+ MDSCs, CD206^−CD86^+ M1‐type macrophages and CD206^+CD86^− M2‐type macrophages were analyzed by flow cytometry. Then, another part of tumor tissues were fixed with 4% paraformaldehyde, embedded in paraffin, cut into slices and stained with antibodies for immunofluorescence and immunohistochemistry analysis. H&E stain assays were applied for all tissue samples.

purified TrxR = assay: Purified TrxR activity assay (DTNB); type: biochemical; details: 0.625-20 µM
Experimental: Different concentrations of complex 6d solution and 1.8 U purified TrxR were added to the wells (25 µL per well separately). Consequently, the reaction solution (20 mg mL^−1 BSA, 500 mM EDTA‐2Na, and 40 mg mL^−1 NADPH, diluted in a 1:1 mixture of PBS and water) was added to the 96 wells (225 µL per well). Finally, 25 mg mL^−1 DTNB solution was added (25 µL per well) and OD values were immediately measured at 405 nm. The linear growth at 405 nm was calculated to show the purified TrxR activity. Final concentrations of complex 6d were 0.625, 1.25, 2.5, 5, 10, 20 µM.

Structure (SMILES): CCn1ccn(CCCCCOc2ccc([C@@H]3COc4c(ccc5c4C=CC(C)(C)O5)C3)c(OCCCCCn3ccn(CC)[c]3=[Au][Br])c2)[c]1=[Au][Br] [6d]
- binding to TrxR (CETSA, ITDR) (TrxR): significant binding
- effect on mice body weight ([1]; 6d and OXA 5 mg kg^−1, GLA 10 mg kg^−1, i.p. every two days, OXA after nine days): no significant effect
- organ tissue damage (H&E staining) ([1]; heart, liver, spleen, lung, kidney, day 13): did not cause noticeable damage to organ tissues
- purified TrxR activity (purified TrxR): suppressed TrxR activity
